Data taken from patent publication US20240229116A9, “METHOD FOR DETECTING MICRORNA IN BIOLOGICAL SAMPLE, COMPOSITION OF HYDROCHLORIDE OF NEUTRAL AMINO ACID, AND CONTAINER” (Toray Industries, Inc., priority 2021, published 2024).
Structures can show the parent of a compound that is named as a salt.

What was measured:
microRNAs in serum = experiment: Detection of microRNAs from serum preserved after mixing with acid (3D-Gene DNA microarray, total fluorescence intensity); parameters: species or system human
Experimental: The serum which had been mixed with the acid in the step (A) was left to stand and preserved at 23° C. for 48 hours.
A quantity of 27 μL of a 4 M aqueous solution of tris(hydroxymethyl)aminomethane (manufactured by Nacalai Tesque Inc.) was mixed with the serum preserved in the step (B). […]
From the serum which had been mixed with the base in the step (C), microRNAs were collected using an RNA extraction reagent included in a 3D-Gene (registered trademark) RNA extraction reagent from liquid sample kit (manufactured by Toray Industries, Inc.), in accordance with the protocol defined by the company.
The microRNAs collected from the serum in the step (D) were fluorescently labeled, using a 3D-Gene (registered trademark) miRNA Labeling kit (manufactured by Toray Industries, Inc.), and in accordance with the protocol defined by the company. Using a 3D-Gene (registered trademark) Human miRNA Oligo chip (manufactured by Toray Industries, Inc.) containing probes having sequences complementary to 2,565 types of microRNAs, as a DNA microarray chip, hybridization was carried out in accordance with the protocol defined by the company. The DNA microarray chip was scanned using a 3D-Gene (registered trademark) scanner (manufactured by Toray Industries, Inc.), to obtain an image. The fluorescence intensities were digitized using a 3D-Gene (registered trademark) Extraction (manufactured by Toray Industries, Inc.), and the total value of the fluorescence intensities of the microRNAs which had been detected exceeding the detection limit was calculated, and the calculated value was defined as the detection level of the microRNAs.

[1] = pH adjustment of serum (dissolved state in serum and pH of serum); assay type: physicochemical, human; conditions: 1 mL serum added to 0.1 g composition (65 mg solid of glycine hydrochloride), 23° C. one minute
Experimental: From the upper layer of the serum in the tube, 0.1 mL of the serum was collected, and the measurement of the pH was performed using a handy pH meter (manufactured by HORIBA, Ltd.).

[2] = Example 13: serum of healthy subject Y, pH 3.1 after acid, 23° C. 48 hours, Tris base to pH 7.8
[3] = Example 14: subject Y serum, pH 3.1 after acid, 23° C. 48 hours, Tris base to pH 6.0
[4] = Example 15: subject Y serum, pH 3.1 after acid, 23° C. 48 hours, Tris base to pH 7.0
[5] = Example 16: subject Y serum, pH 3.1 after acid, 23° C. 48 hours, no base mixed (pH 3.1)
[6] = Comparative Example 3: subject X serum, no acid (pH 7.5), 23° C. 48 hours, Tris base to pH 7.7

O=C(O)CC(O)(CC(=O)O)C(=O)O [Citric acid, citric acid]
Fluorescence intensities relative to before preservation (microRNAs in serum; [2]): 104.5%
Total value of fluorescence intensities (microRNAs in serum; [2]): 1.10 × 10^6
Fluorescence intensities relative to before preservation (microRNAs in serum; Example 13: serum of healthy subject Y, pH 3.1 after acid, 23° C. 48 hours, Tris base to pH 7.8, listed as citric acid): ≥ 100%
Fluorescence intensities relative to before preservation (microRNAs in serum; [3]): 85.0%
Total value of fluorescence intensities (microRNAs in serum; [3]): 8.95 × 10^5
Fluorescence intensities relative to before preservation (microRNAs in serum; Example 14: subject Y serum, pH 3.1 after acid, 23° C. 48 hours, Tris base to pH 6.0, listed as citric acid): ≥ 70%
Fluorescence intensities relative to before preservation (microRNAs in serum; [4]): 85.5%
Total value of fluorescence intensities (microRNAs in serum; [4]): 9.00 × 10^5
Fluorescence intensities relative to before preservation (microRNAs in serum; Example 15: subject Y serum, pH 3.1 after acid, 23° C. 48 hours, Tris base to pH 7.0, listed as citric acid): ≥ 70%
Fluorescence intensities relative to before preservation (microRNAs in serum; [5]): 75.2%
Total value of fluorescence intensities (microRNAs in serum; [5]): 7.92 × 10^5
Fluorescence intensities relative to before preservation (microRNAs in serum; Example 16: subject Y serum, pH 3.1 after acid, 23° C. 48 hours, no base mixed (pH 3.1), listed as citric acid): ≥ 70%

NCC(=O)O [Glycine hydrochloride, glycine hydrochloride]
Total value of fluorescence intensities (microRNAs in serum; Example 1: serum of healthy subject X, pH 2.8 after mixing acid, preserved 23° C. 48 hours, Tris base to pH 7.5): 9.81 × 10^5
Total value of fluorescence intensities (microRNAs in serum; Example 2: subject X serum, pH 2.8 after acid, 23° C. 48 hours, Tris base to pH 7.7): 9.51 × 10^5
Total value of fluorescence intensities (microRNAs in serum; Example 3: subject X serum, pH 2.8 after acid, 23° C. 48 hours, Tris base to pH 8.0): 1.10 × 10^6
Total value of fluorescence intensities (microRNAs in serum; Example 4: subject X serum, pH 2.8 after acid, 23° C. 48 hours, Tris base to pH 8.5): 8.99 × 10^5
Total value of fluorescence intensities (microRNAs in serum; Example 5: subject X serum, pH 2.8 after acid, 23° C. 48 hours, Tris base to pH 9.0): 7.89 × 10^5
Total value of fluorescence intensities (microRNAs in serum; Example 6: subject X serum, pH 2.8 after acid, 23° C. 48 hours, Tris base to pH 6.0): 7.19 × 10^5
Total value of fluorescence intensities (microRNAs in serum; Example 7: subject X serum, pH 2.8 after acid, 23° C. 48 hours, Tris base to pH 7.0): 7.23 × 10^5
Total value of fluorescence intensities (microRNAs in serum; Example 8: subject X serum, pH 2.8 after acid, 23° C. 48 hours, no base mixed (pH 2.8)): 6.25 × 10^5
Total value of fluorescence intensities (microRNAs in serum; Example 9: subject X serum, pH 4.0 after acid, 23° C. 48 hours, Tris base to pH 7.7): 1.05 × 10^6
Total value of fluorescence intensities (microRNAs in serum; Example 10: subject X serum, pH 2.8 after acid, 23° C. 2 hours, Tris base to pH 7.7): 8.70 × 10^5
Total value of fluorescence intensities (microRNAs in serum; Example 11: subject X serum, pH 2.8 after acid, 23° C. 6 hours, Tris base to pH 7.7): 9.07 × 10^5
Total value of fluorescence intensities (microRNAs in serum; Example 12: subject X serum, pH 2.8 after acid, 23° C. 96 hours, Tris base to pH 7.7): 1.00 × 10^6
pH of serum ([1]; upper layer, pH 7.7 before the addition): 4.5
dissolved state in serum ([1]; visual observation): did not quickly dissolve in the serum

tris(hydroxymethyl)aminomethane
Fluorescence intensities relative to before preservation (microRNAs in serum; [6]): 16.3%
Total value of fluorescence intensities (microRNAs in serum; [6]): 1.39 × 10^5
